We go through 20 molecules from article PMC6072100, “Exploring the links between peptoid antibacterial activity and toxicity” (MedChemComm, 2017).

One data set concerns HaCaT cells. The experiment in a line: Skin cell toxicity assay with HaCaT (alamarBlue). Type of data set: cell-based, human. The method in brief: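 HaCaT cells seeded at 2x10^4 per well 24 hours before 1-hour exposure to a 2–100 µM triplicate dilution series in DMEM high glucose with 10% FBS at 37 °C, 5% CO2. Viability assessed with alamarBlue; ED50 defined as dose killing 50% of cells, derived from dose-response data.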

The subject of a further data set is HepG2 cells. The experiment in a line: Cytotoxicity assay with HepG2 (alamarBlue). Type of data set: cell-based, human. The method in brief: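 HepG2 cells (2 × 10^4/well, seeded 1 day earlier) were exposed to compounds (2–100 μM dilution series, triplicate) for 1 h in reduced volume, then diluted with medium and incubated 24 h at 37 °C. Viability was read by alamarBlue after 2 h (Ex 560/Em 600 nm), and ED50 (dose killing 50% of cells) came from dose-response curves.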

The mark [1] stands for this setting: human, HaCaT cells (keratinocytes), 24 h.
The mark [2] stands for this setting: dose that kills 50% of cells, 2–100 μM, 1 h with compound then 24 h, alamarBlue.

Read-outs that look alike come from different tables or passages of the source. Square brackets hold non-standard residues; d marks the D form. Peptide text beside a SMILES is read from it. N(4-F-Bzl)Gly = O=C(O)CNCc1ccc(F)cc1; Gly(N-(CH2)6NH2) = NCCCCCCNCC(=O)O; Gly(N-2-aminoethyl) = NCCNCC(=O)O; Nspe = C[C@H](NCC(=O)O)c1ccccc1; Nphe = O=C(O)CNCc1ccccc1; Nlys = NCCCCNCC(=O)O

In the case of `NCCCCCCNCC(=O)N(CC(=O)N(CC(=O)N(CCCCCCN)CC(=O)N(CC(=O)N(CC(=O)N(CCCCCCN)CC(=O)N(CC(=O)N(CC(N)=O)Cc1ccccc1)Cc1ccccc1)Cc1ccccc1)Cc1ccccc1)Cc1ccccc1)Cc1ccccc1` [Peptoid 2, (NahNpheNphe)3] (H-[Gly(N-(CH2)6NH2)][Nphe][Nphe][Gly(N-(CH2)6NH2)][Nphe][Nphe][Gly(N-(CH2)6NH2)][Nphe][Nphe]-NH2), the “ED50 HaCaT” value in the data set on HaCaT cells (setting [1]) was over 100 µM. Moreover, the “ED50 HepG2” value in the data set with HepG2 cells (human, HepG2 cells, 24 h) was over 100 µM.

As to `CCCCCNCC(=O)N(CC(=O)N(CC(=O)N(CCCCC)CC(=O)N(CC(=O)N(CC(=O)N(CCCCN)CC(=O)N(CC(=O)N(CC(=O)N(CCCCN)CC(=O)N(CC(=O)N(CC(N)=O)[C@@H](C)c1ccccc1)[C@@H](C)c1ccccc1)[C@@H](C)c1ccccc1)[C@@H](C)c1ccccc1)[C@@H](C)c1ccccc1)[C@@H](C)c1ccccc1)[C@@H](C)c1ccccc1)[C@@H](C)c1ccccc1` [Peptoid 31, (NamyNspeNspe)2(NLysNspeNspe)2], in the data set with HaCaT cells, the “ED50 HaCaT” value was 20 µM. The “ED50 HepG2” value with HepG2 cells is 18 µM.

On to `C[C@@H](c1ccccc1)N(CC(N)=O)C(=O)CN(C(=O)CN(CCCCN)C(=O)CN(C(=O)CN(C(=O)CNCCCCN)[C@@H](C)c1ccccc1)[C@@H](C)c1ccccc1)[C@@H](C)c1ccccc1` [Peptoid 15, (NLysNspeNspe)2] (H-[Nlys][Nspe][Nspe][Nlys][Nspe][Nspe]-NH2), for which, in the data set with HaCaT cells (setting [1]), the “ED50 HaCaT” value was over 100 µM. For the same molecule, the “ED50 HepG2” value in the data set with HepG2 cells (human, HepG2 cells, 24 h) is over 100 µM.

As to `C[C@@H](c1ccccc1)N(CC(N)=O)C(=O)CN(C(=O)CN(CCN)C(=O)CN(C(=O)CN(C(=O)CNCCN)[C@@H](C)c1ccccc1)[C@@H](C)c1ccccc1)[C@@H](C)c1ccccc1` [Peptoid 18, (NaeNspeNspe)2], the “ED50 HaCaT” value in the data set with HaCaT cells (setting [1]) was over 100 µM. The “ED50 HepG2” value with HepG2 cells (human, HepG2 cells, 24 h) is over 100 µM.

For `C[C@@H](c1ccccc1)N(CC(N)=O)C(=O)CN(C(=O)CN(CCCCCCN)C(=O)CN(C(=O)CN(C(=O)CNCCCCCCN)[C@@H](C)c1ccccc1)[C@@H](C)c1ccccc1)[C@@H](C)c1ccccc1` [Peptoid 12, (NahNspeNspe)2], the “ED50 HaCaT” value in the data set on HaCaT cells (setting [1]) was over 100 µM. For the same molecule, the “ED50 HepG2” value with HepG2 cells (human, HepG2 cells, 24 h) was over 100 µM.

As to `NCCCCNCC(=O)N(CC(=O)N(CC(=O)N(CCCCN)CC(=O)N(CC(=O)N(CC(=O)N(CCCCN)CC(=O)N(CC(=O)N(CC(N)=O)Cc1ccc(F)cc1)Cc1ccc(F)cc1)Cc1ccc(F)cc1)Cc1ccc(F)cc1)Cc1ccc(F)cc1)Cc1ccc(F)cc1` [Peptoid 23, (NLysNpfbNpfb)3] (H-[Nlys][N(4-F-Bzl)Gly][N(4-F-Bzl)Gly][Nlys][N(4-F-Bzl)Gly][N(4-F-Bzl)Gly][Nlys][N(4-F-Bzl)Gly][N(4-F-Bzl)Gly]-NH2), the “toxicity to HaCaT or HepG2 (in words)” value in the data set with HaCaT cells is on record as “negligible toxicity”. Also, in the data set on HaCaT cells (setting [1]), the “ED50 HaCaT” value is over 100 µM.

For the molecule `NCCNCC(=O)N(CC(=O)N(CC(=O)N(CCN)CC(=O)N(CC(=O)N(CC(N)=O)Cc1ccccc1)Cc1ccccc1)Cc1ccccc1)Cc1ccccc1` [Peptoid 9, (NaeNpheNphe)2] (H-[Gly(N-2-aminoethyl)][Nphe][Nphe][Gly(N-2-aminoethyl)][Nphe][Nphe]-NH2), the “ED50 HaCaT” value with HaCaT cells (setting [1]) was over 100 µM. Also, the “ED50 HepG2” value in the data set with HepG2 cells (human, HepG2 cells, 24 h) was over 100 µM.

On to `C[C@@H](c1ccccc1)N(CC(N)=O)C(=O)CN(C(=O)CN(CCCCN)C(=O)CN(C(=O)CN(C(=O)CN(CCCCN)C(=O)CN(C(=O)CN(C(=O)CNCCCCN)[C@@H](C)c1ccccc1)[C@@H](C)c1ccccc1)[C@@H](C)c1ccccc1)[C@@H](C)c1ccccc1)[C@@H](C)c1ccccc1` [Peptoid 14, (NLysNspeNspe)3] (H-[Nlys][Nspe][Nspe][Nlys][Nspe][Nspe][Nlys][Nspe][Nspe]-NH2), for which the “ED50 HaCaT” value with HaCaT cells (setting [2]) is over 100 µM. Further, the “ED50 HepG2” value in the data set with HepG2 cells (setting [2]) is over 100 µM.

As to `NCCNCC(=O)N(CC(=O)N(CC(=O)N(CCN)CC(=O)N(CC(=O)N(CC(=O)N(CCN)CC(=O)N(CC(=O)N(CC(=O)N(CCN)CC(=O)N(CC(=O)N(CC(N)=O)Cc1ccccc1)Cc1ccccc1)Cc1ccccc1)Cc1ccccc1)Cc1ccccc1)Cc1ccccc1)Cc1ccccc1)Cc1ccccc1` [Peptoid 7, (NaeNpheNphe)4] (H-[Gly(N-2-aminoethyl)][Nphe][Nphe][Gly(N-2-aminoethyl)][Nphe][Nphe][Gly(N-2-aminoethyl)][Nphe][Nphe][Gly(N-2-aminoethyl)][Nphe][Nphe]-NH2), in the data set with HaCaT cells, the “toxicity to HaCaT or HepG2 (in words)” value is listed as “negligible toxicity”. Moreover, in the data set with HaCaT cells (setting [1]), the “ED50 HaCaT” value was over 100 µM. For the same molecule, the “ED50 HepG2” value with HepG2 cells (human, HepG2 cells, 24 h) is over 100 µM.

`C[C@@H](c1ccccc1)N(CC(N)=O)C(=O)CN(C(=O)CN(CCN)C(=O)CN(C(=O)CN(C(=O)CN(CCN)C(=O)CN(C(=O)CN(C(=O)CNCCN)[C@@H](C)c1ccccc1)[C@@H](C)c1ccccc1)[C@@H](C)c1ccccc1)[C@@H](C)c1ccccc1)[C@@H](C)c1ccccc1` [Peptoid 17, (NaeNspeNspe)3]: the “ED50 HaCaT” value with HaCaT cells (setting [2]) is over 100 µM. Besides, in the data set on HepG2 cells (setting [2]), the “ED50 HepG2” value was over 100 µM.

Turning to `NCCCCNCC(=O)N(CC(=O)N(CC(=O)N(CCCCN)CC(=O)N(CC(=O)N(CC(=O)N(CCCCN)CC(=O)N(CC(=O)N(CC(=O)N(CCCCN)CC(=O)N(CC(=O)N(CC(N)=O)Cc1ccccc1)Cc1ccccc1)Cc1ccccc1)Cc1ccccc1)Cc1ccccc1)Cc1ccccc1)Cc1ccccc1)Cc1ccccc1` [Peptoid 4, (NLysNpheNphe)4] (H-[Nlys][Nphe][Nphe][Nlys][Nphe][Nphe][Nlys][Nphe][Nphe][Nlys][Nphe][Nphe]-NH2), the “toxicity to HaCaT or HepG2 (in words)” value in the data set with HaCaT cells is on record as “negligible toxicity”. Besides, the “ED50 HepG2” value in the data set with HepG2 cells was over 100 µM; with HepG2 cells (human, HepG2 cells, 24 h), over 100 µM.

For `NCCCCCCNCC(=O)N(CC(=O)N(CC(=O)N(CCCCCCN)CC(=O)N(CC(=O)N(CC(N)=O)Cc1ccccc1)Cc1ccccc1)Cc1ccccc1)Cc1ccccc1` [Peptoid 3, (NahNpheNphe)2] (H-[Gly(N-(CH2)6NH2)][Nphe][Nphe][Gly(N-(CH2)6NH2)][Nphe][Nphe]-NH2), the “ED50 HaCaT” value with HaCaT cells (setting [1]) is over 100 µM. The “ED50 HepG2” value with HepG2 cells (human, HepG2 cells, 24 h) is over 100 µM.

`C[C@@H](c1ccccc1)N(CC(N)=O)C(=O)CN(C(=O)CN(CCCCN)C(=O)CN(Cc1ccc(F)cc1)C(=O)CN(Cc1ccc(F)cc1)C(=O)CN(CCCCN)C(=O)CN(C(=O)CN(C(=O)CN(CCCCN)C(=O)CN(Cc1ccc(F)cc1)C(=O)CN(Cc1ccc(F)cc1)C(=O)CNCCCCN)[C@@H](C)c1ccccc1)[C@@H](C)c1ccccc1)[C@@H](C)c1ccccc1` [Peptoid 28, [(NLysNpfbNpfb)(NLysNspeNspe)]2]: in the data set with HaCaT cells, the “toxicity to HaCaT or HepG2 (in words)” value is given as “negligible toxicity”. Further, in the data set with HaCaT cells (setting [1]), the “ED50 HaCaT” value was over 100 µM. In the data set on HepG2 cells, the “ED50 HepG2” value is 55 µM.

On to `NCCNCC(=O)N(CC(=O)N(CC(=O)N(CCN)CC(=O)N(CC(=O)N(CC(=O)N(CCN)CC(=O)N(CC(=O)N(CC(N)=O)Cc1ccccc1)Cc1ccccc1)Cc1ccccc1)Cc1ccccc1)Cc1ccccc1)Cc1ccccc1` [Peptoid 8, (NaeNpheNphe)3] (H-[Gly(N-2-aminoethyl)][Nphe][Nphe][Gly(N-2-aminoethyl)][Nphe][Nphe][Gly(N-2-aminoethyl)][Nphe][Nphe]-NH2), for which the “ED50 HaCaT” value with HaCaT cells (setting [1]) was over 100 µM. The “ED50 HepG2” value in the data set on HepG2 cells (human, HepG2 cells, 24 h) was over 100 µM.

With (NhArgNmfbNmfb)4 [Peptoid 36], the “ED50 HaCaT” value in the data set on HaCaT cells turned out to be 28 µM. The “ED50 HepG2” value in the data set with HepG2 cells turned out to be 21 µM.

Consider `NCCCCCCNCC(=O)N(CC(=O)N(CC(=O)N(CCCCCCN)CC(=O)N(CC(=O)N(CC(=O)N(CCCCCCN)CC(=O)N(CC(=O)N(CC(=O)N(CCCCCCN)CC(=O)N(CC(=O)N(CC(N)=O)Cc1ccccc1)Cc1ccccc1)Cc1ccccc1)Cc1ccccc1)Cc1ccccc1)Cc1ccccc1)Cc1ccccc1)Cc1ccccc1` [Peptoid 1, (NahNpheNphe)4] (H-[Gly(N-(CH2)6NH2)][Nphe][Nphe][Gly(N-(CH2)6NH2)][Nphe][Nphe][Gly(N-(CH2)6NH2)][Nphe][Nphe][Gly(N-(CH2)6NH2)][Nphe][Nphe]-NH2), for which the “ED50 HaCaT” value with HaCaT cells (setting [1]) is over 100 µM. In the data set with HepG2 cells (human, HepG2 cells, 24 h), the “ED50 HepG2” value was over 100 µM.

For the molecule `C[C@@H](c1ccccc1)N(CC(N)=O)C(=O)CN(C(=O)CN(CCCCN)C(=O)CN(C(=O)CN(C(=O)CN(CCCCN)C(=O)CN(C(=O)CN(C(=O)CN(CCCCN)C(=O)CN(C(=O)CN(C(=O)CNCCCCN)[C@@H](C)c1ccccc1)[C@@H](C)c1ccccc1)[C@@H](C)c1ccccc1)[C@@H](C)c1ccccc1)[C@@H](C)c1ccccc1)[C@@H](C)c1ccccc1)[C@@H](C)c1ccccc1` [Peptoid 13, (NLysNspeNspe)4] (H-[Nlys][Nspe][Nspe][Nlys][Nspe][Nspe][Nlys][Nspe][Nspe][Nlys][Nspe][Nspe]-NH2), the “ED50 HaCaT” value with HaCaT cells (setting [2]) is 20 µM. In addition, the “ED50 HepG2” value with HepG2 cells (setting [2]) was 29 µM.

For `COc1ccc(CN(CC(N)=O)C(=O)CN(Cc2ccc(OC)cc2)C(=O)CN(CCCCN)C(=O)CN(Cc2ccc(OC)cc2)C(=O)CN(Cc2ccc(OC)cc2)C(=O)CN(CCCCN)C(=O)CN(Cc2ccc(OC)cc2)C(=O)CN(Cc2ccc(OC)cc2)C(=O)CN(CCCCN)C(=O)CN(Cc2ccc(OC)cc2)C(=O)CN(Cc2ccc(OC)cc2)C(=O)CNCCCCN)cc1` [Peptoid 19, (NLysNpmbNpmb)4], in the data set on HepG2 cells (human, HepG2 cells, 24 h), the “ED50 HepG2” value was over 100 µM.

In the case of `NCCCCNCC(=O)N(CC(=O)N(CC(=O)N(CCCCN)CC(=O)N(CC(=O)N(CC(=O)N(CCCCN)CC(=O)N(CC(=O)N(CC(N)=O)Cc1ccccc1)Cc1ccccc1)Cc1ccccc1)Cc1ccccc1)Cc1ccccc1)Cc1ccccc1` [Peptoid 5, (NLysNpheNphe)3], the “ED50 HaCaT” value with HaCaT cells (setting [1]) is over 100 µM. Moreover, the “ED50 HepG2” value in the data set on HepG2 cells (human, HepG2 cells, 24 h) was over 100 µM.

Regarding `NCCCCNCC(=O)N(CC(=O)N(CC(=O)N(CCCCN)CC(=O)N(CC(=O)N(CC(N)=O)Cc1ccccc1)Cc1ccccc1)Cc1ccccc1)Cc1ccccc1` [Peptoid 6, (NLysNpheNphe)2] (H-[Nlys][Nphe][Nphe][Nlys][Nphe][Nphe]-NH2), in the data set with HaCaT cells (setting [1]), the “ED50 HaCaT” value is over 100 µM. For the same molecule, the “ED50 HepG2” value in the data set on HepG2 cells (human, HepG2 cells, 24 h) is over 100 µM.
